Our source for the EC50 values is US20260356841A1, “HETEROCYCLIC PYRIDINONE COMPOUNDS AS TRIGGERING RECEPTOR EXPRESSED ON MYELOID CELLS 2 AGONISTS AND METHODS OF USE” (Vigil Neuroscience, Inc., priority 2023, published 2026).

Structures are written as SMILES.

The target of the test is T1, human TREM2 (Homo sapiens, UniProt Q9NZC2).
T1 construct: expressed in transfected cells; host or cells: HEK293T (HEK293T-hTREM2 cells)
T1 sequence (Q9NZC2 19-230): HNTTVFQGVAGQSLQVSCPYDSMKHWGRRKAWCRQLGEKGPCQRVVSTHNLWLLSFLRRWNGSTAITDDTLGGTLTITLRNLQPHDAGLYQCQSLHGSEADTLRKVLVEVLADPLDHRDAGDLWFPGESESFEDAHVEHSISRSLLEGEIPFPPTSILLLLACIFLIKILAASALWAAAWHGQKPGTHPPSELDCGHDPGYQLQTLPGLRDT
T1 sequence (O43914 22-113 partner): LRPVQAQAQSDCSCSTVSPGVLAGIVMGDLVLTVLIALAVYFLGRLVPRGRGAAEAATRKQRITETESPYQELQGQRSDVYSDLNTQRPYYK
Description: TREM2 agonist potency by cellular phosphorylation of Spleen Tyrosine Kinase (Syk), AlphaLisa, HEK293T-hTREM2 cells. The class given is cell-based. The conditions noted are these: hTREM2 EC50 Data (HEK293 Cells); Syk phosphorylation, AlphaLisa; read-out: hTREM2 EC50. Summed up: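 HEK293T cells co-expressing human TREM2 and DAP12, plated 20–24 h before use. Compounds applied 45 min at room temperature in assay buffer, then cells lysed and phospho-Syk quantified by AlphaLisa. Percent activation from a standard curve; EC50 from a four-parameter variable-slope fit.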
For `Cc1nc2cc(C3CCO[C@@H](c4ccc(=O)n(C)c4)C3)nc(-c3ccc(F)cc3F)c2nc1C` (stereo partly drawn) [Example 194, 5-(4-(5-(2,4-difluorophenyl)-2,3-dimethylpyrido[3,4-b]pyrazin-7-yl)tetrahydro-2H-pyran-2-yl)-1-methylpyridin-2 (1H)-one], the EC50 was 100 to 500 nM.
Next, `COc1nc2c(-c3ccc(C(F)(F)F)cc3F)nc([C@@H]3CCO[C@H](c4ccc(=O)n(C)c4)C3)nc2nc1C` [Example 130, 1-methyl-5-[(2S,4R)-4-[4-[2-fluoro-4-(trifluoromethyl)phenyl]-6-methoxy-7-methyl-pteridin-2-yl]tetrahydropyran-2-yl]pyridin-2-one]: below 100 nM.
`Cc1nc2nc(N3C[C@@H](C)O[C@@H](c4ccc(=O)n(C)c4)C3)nc(C34CC(C(F)(F)F)(C3)C4)c2nc1C` [Example 62, 5-[(2S,6R)-4-[6,7-dimethyl-4-[3-(trifluoro-methyl)-1-bicyclo[1.1.1]pentanyl]pteridin-2-yl]-6-methyl-morpholin-2-yl]-1-methyl-pyridin-2-one]: the EC50 is below 100 nM.
For the compound `COn1cc([C@H]2C[C@@H](c3nc(C45CC(C(F)(F)F)(C4)C5)c4nc(C)c(C)nc4n3)CCO2)ccc1=O` [Example 203, 5-[(2R,4S)-4-[6,7-dimethyl-4-[3-(trifluoromethyl)-1-bicyclo[1.1.1]pentanyl]pteridin-2-yl]tetrahydropyran-2-yl]-1-methoxy-pyridin-2-one], the EC50 was below 100 nM.
Under `Cc1cc(-n2cc([C@H]3CC(c4nc(C56CC(C(F)(F)F)(C5)C6)c5nc(C)c(C)nc5n4)CCO3)ccc2=O)cs1` (stereo partly drawn) [Example 104, 5-((2R)-4-(6,7-dimethyl-4-(3-(trifluoromethyl)bicyclo-[1.1.1]pentan-1-yl)pteridin-2-yl)tetrahydro-2H-pyran-2-yl)-1-(5-methylthiophen-3-yl)pyridin-2 (1H)-one] stands below 100 nM; under `Cc1nc2nc([C@H]3CCO[C@@H](c4ccc(=O)n(CC5(C)CC5)c4)C3)nc(C34CC(C(F)(F)F)(C3)C4)c2nc1C` [Example 100, 5-[(2R,4S)-4-[6,7-dimethyl-4-[3-(trifluoromethyl)-1-bicyclo[1.1.1]pentanyl]pteridin-2-yl]tetrahydropyran-2-yl]-1-[(1-methylcyclopropyl)methyl]pyridin-2-one], below 100 nM.
Under `[2H]C([2H])([2H])n1cc([C@H]2C[C@@H](c3nc(C45CC(C(F)(F)F)(C4)C5)c4nc(C)c(C)nc4n3)CCO2)ccc1=O` [Example 36] stands below 100 nM; under `Cc1nc2nc([C@H]3CCO[C@@H](c4ccc(=O)n(N5CCCC5)c4)C3)nc(C34CC(C(F)(F)F)(C3)C4)c2nc1C` [Example 209, 5-[(2R,4S)-4-[6,7-dimethyl-4-[3-(trifluoromethyl)-1-bicyclo[1.1.1]pentanyl]pteridin-2-yl]tetrahydropyran-2-yl]-1-pyrrolidin-1-yl-pyridin-2-one], below 100 nM; under `Cc1nc2nc([C@H]3CCO[C@@H](c4ccc(=O)n(N5CC=CC5)c4)C3)nc(C34CC(C(F)(F)F)(C3)C4)c2nc1C` [Example 210, 1-(2,5-dihydropyrrol-1-yl)-5-[(2R,4S)-4-[6,7-dimethyl-4-[3-(trifluoromethyl)-1-bicyclo[1.1.1]pentanyl]pteridin-2-yl]tetrahydropyran-2-yl]pyridin-2-one], below 100 nM.
Turning to `Cc1nc2nc([C@H]3CCO[C@@H](c4ccc(=O)n(C)c4)C3)nc(C34CC(C(C)(F)F)(C3)C4)c2nc1C` [Example 38, 5-[(2R,4S)-4-[4-[3-(1,1-difluoroethyl)-1-bicyclo[1.1.1]pentanyl]-6,7-dimethyl-pteridin-2-yl]tetrahydropyran-2-yl]-1-methyl-pyridin-2-one], the concentration giving a half-maximal response (EC50) was below 100 nM.
On to `Cc1nc2nc(N3CCC(F)(F)C(c4ccc(=O)n(C)c4)C3)nc(-c3ccc(F)cc3F)c2nc1C` (stereo not drawn) [Example 190, 5-[1-[4-(2,4-difluorophenyl)-6,7-dimethyl-pteridin-2-yl]-4,4-difluoro-3-piperidyl]-1-methyl-pyridin-2-one], for which the EC50 was below 100 nM.
Under `Cc1nc2nc([C@@H]3CCO[C@H](c4ccc(=O)n(C)c4)C3)nc(-c3ccc(C(F)(F)F)c(F)c3F)c2nc1C` [Example 19] stands below 100 nM; under `Cc1nc2nc(N3C[C@@H](C)O[C@@H](c4ccc(=O)n(C)c4)C3)nc(-c3cnc(C(F)(F)F)s3)c2nc1C` [Example 23, 5-[(2S,6R)-4-[6,7-dimethyl-4-[2-(trifluoromethyl)thiazol-5-yl]pteridin-2-yl]-6-methyl-morpholin-2-yl]-1-methyl-pyridin-2-one], below 100 nM.
As to `COc1nc2c(-c3ccc(C(F)(F)F)cc3F)nc([C@H]3CCO[C@@H](c4ccc(=O)n(C)c4)C3)nc2nc1C` [Example 129, 1-methyl-5-[(2R,4S)-4-[4-[2-fluoro-4-(trifluoromethyl)phenyl]-6-methoxy-7-methyl-pteridin-2-yl]tetrahydropyran-2-yl]pyridin-2-one], the EC50 was below 100 nM.
Next, `CN(C)c1nc2nc([C@@H]3CCO[C@H](c4ccc(=O)n(C)c4)C3)nc(-c3ccc(F)cc3F)c2s1` [Example 14, 5-[(2S,4R)-4-[7-(2,4-difluorophenyl)-2-(dimethylamino)thiazolo[4,5-d]pyrimidin-5-yl]tetrahydropyran-2-yl]-1-methyl-pyridin-2-one]: below 100 nM; `COCCn1cc([C@H]2C[C@@H](c3nc(C45CC(C(F)(F)F)(C4)C5)c4nc(C)c(C)nc4n3)CCO2)ccc1=O` [Example 82, 5-[(2R,4S)-4-[6,7-dimethyl-4-[3-(trifluoromethyl)-1-bicyclo[1.1.1]pentanyl]pteridin-2-yl]tetrahydropyran-2-yl]-1-(2-methoxyethyl)pyridin-2-one]: below 100 nM; `Cc1nc2nc([C@H]3CCO[C@@H](c4ccc(=O)n(C)c4)C3)nc(C34CC(CC(F)F)(C3)C4)c2nc1C` [Example 46, 5-[(2R,4S)-4-[4-[3-(2,2-difluoroethyl)-1-bicyclo[1.1.1]pentanyl]-6,7-dimethyl-pteridin-2-yl]tetrahydropyran-2-yl]-1-methyl-pyridin-2-one]: below 100 nM.
Under `COc1nc2c(C34CC(C(F)(F)F)(C3)C4)nc([C@H]3CCO[C@@H](c4ccc(=O)n(-c5csc(C)n5)c4)C3)nc2nc1C` [Example 153, 5-((2R,4S)-4-(6-methoxy-7-methyl-4-(3-(trifluoromethyl)-bicyclo[1.1.1]pentan-1-yl)pteridin-2-yl)tetrahydro-2H-pyran-2-yl)-1-(2-methylthiazol-4-yl)pyridin-2(1H)-one] stands below 100 nM; under `Cc1nc2nc([C@@H]3CCO[C@H](c4ccc(=O)n(C)c4)C3)nc(-c3ccc(C(F)(F)F)cc3F)c2nc1C` [Example 5, 1-methyl-5-[(2S,4R)-4-[4-[2-fluoro-4-(trifluoromethyl)phenyl]-6,7-dimethyl-pteridin-2-yl]tetrahydropyran-2-yl]pyridin-2-one], below 100 nM.
Under `Cc1cnc2c(C34CC(C(F)(F)F)(C3)C4)nc([C@H]3CCO[C@@H](c4ccc(=O)[nH]c4)C3)nc2n1` [Example 187, 5-((2R,4S)-4-(7-methyl-4-(3-(trifluoromethyl)bicyclo[1.1.1]pentan-1-yl)pteridin-2-yl)tetrahydro-2H-pyran-2-yl)pyridin-2(1H)-one] stands 100 to 500 nM; under `Cc1nc2nc([C@H]3CCO[C@@H](c4ccc(=O)n(C)c4)C3)nc(C34CC(Cl)(C3)C4)c2nc1C` (single isomer, unassigned) [Example 40], below 100 nM.
`Cc1cnc2c(C34CC(C(F)(F)F)(C3)C4)nc([C@H]3CCO[C@@H](c4ccc(=O)n(C)c4)C3)nc2n1` [Example 123, 1-methyl-5-((2R,4S)-4-(7-methyl-4-(3-(trifluoromethyl)bicyclo-[1.1.1]pentan-1-yl)pteridin-2-yl)tetrahydro-2H-pyran-2-yl)pyridin-2(1H)-one]: the EC50 is below 100 nM.
Next, `Cc1nc2nc(N3C[C@@H](C)O[C@@H](c4ccc(=O)n(N)c4)C3)nc(C34CC(C(F)(F)F)(C3)C4)c2nc1C` [Example 184, 1-amino-5-[(2S,6R)-4-[6,7-dimethyl-4-[3-(trifluoromethyl)-1-bicyclo[1.1.1]pentanyl]pteridin-2-yl]-6-methyl-morpholin-2-yl]pyridin-2-one]: below 100 nM; `C=CCN(CC=C)n1cc([C@H]2C[C@@H](c3nc(C45CC(C(F)(F)F)(C4)C5)c4nc(C)c(C)nc4n3)CCO2)ccc1=O` [Example 206, 1-(diallylamino)-5-[(2R,4S)-4-[6,7-dimethyl-4-[3-(trifluoromethyl)-1-bicyclo[1.1.1]pentanyl]pteridin-2-yl]tetrahydropyran-2-yl]pyridin-2-one]: below 100 nM.
Under `Cc1nc2nc(N3C[C@@H](C)O[C@@H](c4ccc(=O)n(C5CC5)c4)C3)nc(C34CC(C(F)(F)F)(C3)C4)c2nc1C1COC1` [Example 183, 1-cyclopropyl-5-((2S,6R)-6-methyl-4-(7-methyl-6-(oxetan-3-yl)-4-(3-(trifluoromethyl)bicyclo[1.1.1]pentan-1-yl)pteridin-2-yl)morpholin-2-yl)pyridin-2(1H)-one] stands below 100 nM; under `Cc1nc2nc([C@@H]3CCO[C@H](c4ccc(=O)n(C)c4)C3)nc(-c3ccc(C(F)(F)F)cc3F)c2nc1C(F)F` [Example 127, 5-[(2S,4R)-4-[6-(difluoromethyl)-4-[2-fluoro-4-(trifluoromethyl)phenyl]-7-methyl-pteridin-2-yl]tetrahydropyran-2-yl]-1-methyl-pyridin-2-one], below 100 nM.
Next, `[2H]C([2H])([2H])n1cc([C@H]2C[C@@H](c3nc(C45CC(C(F)(F)F)(C4)C5)c4nc(OC)c(C)nc4n3)CCO2)ccc1=O` [Example 147, 5-((2R,4S)-4-(6-methoxy-7-methyl-4-(3-(trifluoromethyl)-bicyclo[1.1.1]pentan-1-yl)pteridin-2-yl)tetrahydro-2H-pyran-2-yl)-1-(methyl-d3)pyridin-2(1H)-one]: below 100 nM.
